Patent US11912688B2, “1, 3-dioxolane derivative” (TOHOKU UNIVERSITY, priority 2019, dated 2024)

Tests used:
[1] = tested on: iNOS transgenic mice; experiment: Test using mice developing diabetic nephropathy (iNOS transgenic mice); assay type: in vivo, mouse; details: 6 mg/kg/day oral
From the text: iNOS transgenic mice (Takamura T. et al., J Biol Chem. 1998; 273: 2493-2496; received from Emeritus Professor Hiroshi Okamoto, Tohoku University) were used as model mice. According to the literature of Takamura et al., breeding in which 4-week-old model mice (experimental group: n=8, control group: n=6) and a wild type group (n=8), which is non-transgenic mice born simultaneously with the model mice by mating iNOS transgenic mice and wild type (CD1 (ICR)) mice, were fed with high protein and high calorie diets was performed for 13 weeks. Compound 12 (D-532) was further orally administered to the experimental group in 6 mg/kg/day. As to the groups, the body weights were measured every day, and the blood sugar levels, the albumin in urine, and the creatinine in urine were measured in accordance with the usual method every 3 weeks. The groups were sacrificed after the breeding, the serum creatinine in the blood collected from the abdominal vena cava at the time of dissection was measured, and the gene expression in the kidneys collected at the time of dissection was analyzed. The kidney tissues were stained with HE and PAS and observed.
Further, the […] tissue section images were subjected to ImageJ (http://imagej.nih.gov/ij/) and measured according to the operation manual attached to ImageJ. When each glomerulus area (each group, n=100) and an area obtained by excluding regions of no interest such as vascular lumens and nuclei from the each glomerulus area were found, and the ratio therebetween, namely the PAS-positive area ratio in glomeruli, was found, the ratio increased in the model mice, and the improvement was meanwhile confirmed in the administered group.

[2] = tested on: ChREBP; experiment: ChREBP target gene expression analysis in the kidney by quantitative PCR (iNOS mice); assay type: in vivo, mouse; details: iNOS mice of Test Example 3, quantitative PCR
Description: (§1) In the mice used in Test Example 3, the expression variations of ChREBPβ and the TXNIP genes, which are target genes of ChREBP in the kidney, were analyzed by quantitative PCR in the method of the previous report (Genes to Cells 19 (2013) 52-65). The following primer set was used for the amplification of ChREBPβ.
A primer set used for the amplification of the TXNIP gene is as mentioned above.

[3] = tested on: iNOS transgenic mice; experiment: Observation of mouse kidney tissues by transmission electron microscope (iNOS mice); assay type: in vivo; details: iNOS mice of Test Example 3, transmission electron microscope; FIG. 16C
Description: The kidneys of model mice in the administered group and the non-administered group, and a mouse in the wild type group in Test Example 3 were placed in a prefixing solution containing 2% PFA (FUJIFILM Wako Pure Chemical Corporation; 163-20145)/2.5% glutaraldehyde (TAAB Laboratories Equipment Ltd.; G017/1)/0.1 M cacodylate buffer solution (FUJIFILM Wako Pure Chemical Corporation; 036-18175) and treated at room temperature for 2 hours. The prefixed kidneys were washed with 0.1 M cacodylate buffer solution (containing 8% sucrose (FUJIFILM Wako Pure Chemical Corporation: 196-00015)) on ice for 15 minutes×4 times and treated with postfixing solution containing 1% osmium tetroxide (FUJIFILM Wako Pure Chemical Corporation; 154-01014) on ice for 90 minutes. The postfixed kidneys were washed with ultrapure water for 15 minutes×3 times, placed in aqueous 50, 60, 70, 80, 90, and 95% ethanol solutions each for 10 minutes×1 time, further in 100% ethanol for 20 minutes×3 times, and subjected to ethanol dehydration. […]

[4] = tested on: ChREBP; experiment: ChREBP target gene expression analysis in the kidney by quantitative PCR (db/db mice); assay type: in vivo, mouse; details: db/db mice of Test Example 7, quantitative PCR
Description: as §1
In the mice used in Test Example 7, ChREBP target gene expression analysis was performed by the same method as in Test Example 4. FIG. 22 and FIG. 23 show the results.

[5] = tested on: db/db mice; experiment: Relationship between blood sugar level and amount of albumin excreted in urine (ACR), regression lines, db/db mice; assay type: in vivo, mouse; details: experimental vs control group, least squares regression, FIG. 25
From the text: As to the blood sugar levels and the amounts of albumin excreted in urine (ACR) of the experimental group and the control group (non-administered group of db/db mice) in Test Example 7, a scatter diagram was created using SPSS, which is statistical analysis software, so that the abscissa axis is the blood sugar level, and the ordinate axis is the ACR, and regression lines (linear approximation by the least squares method) were found.

Compound: c1ccc(COC[C@H]2CO[C@@](Cn3nnc4ccccc43)(c3ccccc3)O2)cc1 [Example D-532, 1-(((2S,4S)-4-((benzyloxy)methyl)-2-phenyl-1,3-dioxolan-2-yl)methyl)-1H-benzo[d][1,2,3]triazole]
- blood sugar level ([1]; 13 weeks, vs control group, FIG. 4): significantly low value as compared with the control group
- amount of albumin excreted in urine ([1]; 13 weeks, vs control group, FIG. 5): significant low value
- increase in blood creatinine ([1]; at dissection, FIG. 6): significantly improved
- expression of ChREBPβ gene in the kidney ([2]; FIG. 10): decrease in expression
- expression of TXNIP gene in the kidney ([2]; FIG. 11): decrease in expression
- structure of foot processes in kidney tissue [3]: suppressed the structural change of the foot processes
- expression of ChREBPβ gene in the kidney ([4]; FIG. 22): Decrease in the expression
- expression of TXNIP gene in the kidney ([4]; FIG. 23): Decrease in the expression
- effect on ACR relative to blood sugar level (gradient of the regression line) [5]: direct effect on the kidney
